The test relates to P388 leukemia ip, CD2F1 mice, survival T/C. Put plainly: NCI In Vivo Anticancer Drug Screen. Data for tumor model P388 Leukemia (intraperitoneal) in CD2F1 (CDF1) mice. To be noted: endpoint: median survival time, higher = longer survival. The method in brief:
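Mice carrying the transplanted tumor received test compound or vehicle. Survival was recorded in each group, and the value is the treated-group measurement divided by that of the vehicle-treated control group.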

Where [1] appears, read: dose: 60.0 mg/kg/injection, schedule: Q01DX005 (ip), vehicle: saline with Tween-80.
The mark [2] stands for this setting: dose: 120.0 mg/kg/injection, schedule: Q01DX005 (ip), vehicle: saline with Tween-80.
The mark [3] stands for this setting: dose: 240.0 mg/kg/injection, schedule: Q01DX005 (ip), vehicle: saline with Tween-80.
The mark [4] stands for this setting: dose: 25.0 mg/kg/injection, schedule: Q01DX005 (ip), vehicle: saline with Tween-80.
[5] abbreviates: dose: 50.0 mg/kg/injection, schedule: Q01DX005 (ip), vehicle: saline with Tween-80.
[6] abbreviates: dose: 100.0 mg/kg/injection, schedule: Q01DX005 (ip), vehicle: saline with Tween-80.

SMILES strings stand for the structures. “And” between values parts separate entries of the source, which are not always exact repeats. Identical values can stand only once. Inconclusive results and toxic doses are left out.

In the case of `C1C[N+]2(CCO1)CC[N+]1(CCOCC1)CC2`, the T/C is 110 % of control (dose: 60.0 mg/kg/injection, schedule: Q01DX005 (ip), vehicle: saline); 101 % of control (dose: 120.0 mg/kg/injection, schedule: Q01DX005 (ip), vehicle: saline); 101 % of control (dose: 240.0 mg/kg/injection, schedule: Q01DX005 (ip), vehicle: saline).

Turning to `OC1c2cccn2-c2cc(Cl)ccc2SC1c1ccccc1` (centres undefined), the T/C runs as follows: under setting [1], 99 % of control; under setting [2], 101 % of control; under setting [3], 100 % of control.

`CCCCN(CCCC)CCC(C)(O)c1cccc2ccccc12` (centres undefined): the T/C was 98 % of control under setting [4], 108 % of control under setting [5] and 92 % of control under setting [6].

With `CCOC(=O)c1cnc2c(OC)cccc2c1Nc1ccc2c(c1)OCO2`, the T/C is 101 % of control (dose: 60.0 mg/kg/injection, schedule: Q01DX005 (ip), vehicle: Klucel (hydroxypropylcellulose) (HPC)); 97 % of control (dose: 120.0 mg/kg/injection, schedule: Q01DX005 (ip), vehicle: Klucel (hydroxypropylcellulose) (HPC)); 96 % of control (dose: 240.0 mg/kg/injection, schedule: Q01DX005 (ip), vehicle: Klucel (hydroxypropylcellulose) (HPC)).

With `[O-][n+]1c(C2=C(N3CCCC3)c3ccccc3C2)c(Cl)c(Cl)c(Cl)c1C1=C(N2CCCC2)c2ccccc2C1`, the T/C by setting is: under setting [4], 102 % of control; under setting [5], 103 % of control; under setting [6], 93 % of control.

For the compound `CCOC(=O)c1c[nH]n(Cc2ccccc2)c1=O`, the T/C runs as follows: under setting [1], 100 % of control; under setting [2], 100 % of control; under setting [3], 95 % of control.

In the case of `CC(=O)NC(CCl)(OC(C)=O)C(=O)OCc1ccc([N+](=O)[O-])cc1` (centres undefined), the T/C by setting is: (dose: 12.5 mg/kg/injection, schedule: Q01DX001 (ip), vehicle: Klucel (hydroxypropylcellulose) (HPC)) 102 % of control; (dose: 25.0 mg/kg/injection, schedule: Q01DX001 (ip), vehicle: Klucel (hydroxypropylcellulose) (HPC)) 108 % of control; (dose: 50.0 mg/kg/injection, schedule: Q01DX001 (ip), vehicle: Klucel (hydroxypropylcellulose) (HPC)) 100 % of control; (dose: 100.0 mg/kg/injection, schedule: Q04DX003 (ip), vehicle: saline with Tween-80) 106 % of control; (dose: 200.0 mg/kg/injection, schedule: Q04DX003 (ip), vehicle: saline with Tween-80) 120 % of control; (dose: 400.0 mg/kg/injection, schedule: Q04DX003 (ip), vehicle: saline with Tween-80) 100 % of control.

For the compound `O=C1/C(=C\c2ccccc2)SC(=S)N1c1cccc(Br)c1`, the T/C under setting [4] is 87 % of control, the T/C under setting [5] was 97 % of control and the T/C under setting [6] was 106 % of control.

For the compound `COc1cccc2c1C(=O)c1c(O)c3c(c(O)c1C2=O)C[C@@](O)(C(C)O)C[C@@H]3OC1CC(N(C)C)C(O)C(C)O1` (some centres undefined), the T/C (dose: 0.78 mg/kg/injection, schedule: Q01DX009 (ip), vehicle: water) was 152 % of control; the T/C (dose: 1.56 mg/kg/injection, schedule: Q01DX009 (ip), vehicle: water) is 159 % of control and 161 % of control; the T/C (dose: 2.35 mg/kg/injection, schedule: Q04DX003 (ip), vehicle: water) is 107 % of control; the T/C (dose: 3.13 mg/kg/injection, schedule: Q01DX009 (ip), vehicle: water) was 165 % of control and 172 % of control; the T/C (dose: 6.25 mg/kg/injection, schedule: Q01DX009 (ip), vehicle: water) was 198 % of control and 209 % of control; the T/C (dose: 9.4 mg/kg/injection, schedule: Q04DX003 (ip), vehicle: water) was 111 % of control. For the same compound, the T/C (dose: 75.0 mg/kg/injection, schedule: Q04DX003 (ip), vehicle: water) was 108 % of control.

Source of the values: PubChem BioAssay AID330 (DTP/NCI, 2004).
